The values that follow are results of earlier work, collected in patent US10314839B2, “Diversion-resistant opioid formulations” (priority 2014, dated 2019).

Counter-ions that a name gives are not always drawn.

Data set [1] has as its system opioid receptor. Conditions: after oral doses.
Data set [2] concerns mu over delta receptor sub-types.
Data set [3] concerns opioid receptor.
The conditions of data set [4]: hydrochloride salt.

On to `O=C1CC[C@@]2(O)[C@H]3Cc4ccc(O)c5c4[C@@]2(CCN3CC2CC2)[C@H]1O5` [naltrexone], for which the Duration of action in data set [1] is ~24 h. The Protein binding entry (in vivo) is listed as “approximately 21%”. The Oral bioavailability (oral administration) was 5-40%. In addition, in data set [2], the “Preferential blocking action between receptor sub-types” value is “strong preferential blocking action against mu over delta receptor sub-types”. Further, in data set [3], the “Opioid agonist effects / properties” value is given as “no opioid agonist properties”.
With `O=C1CC[C@@]2(O)[C@H]3Cc4ccc(O)c5c4[C@@]2(CCN3CC2CC2)[C@H]1O5` [hydrochloride salt of naltrexone, naltrexone], the Solubility in water entry in data set [4] is listed as “up to 100 mg/mL”.
For `C[C@H]1[C@H]2Cc3ccc(O)cc3[C@]1(C)CCN2CC1CC1` [cyclazocine], in data set [1], the Duration of action was ~24 h.
